Results from patent US10457665B2, “1,4-di-(4-methylthiophenyl)-3-phtaloylazetidine-2-one and the derivatives thereof” (Universite De Nantes, priority 2015, dated 2019).

How the values were obtained:
[1] = test system: liver, subcutaneous and visceral adipose tissue of obese mice; assay: Gene expression of markers (RT-PCR) in liver and adipose tissues after oral treatment with food; assay type: in vivo, mouse
obese C57BL/6 mice = assay: OGTT before and after 30-day chronic treatment; assay type: in vivo, mouse; details: obese mice after 30 days of treatment, 10 mg/kg
Procedure: In order to evaluate the long-term effects of the treatment on blood glucose control, glucose tolerance (OGTT) and insulin sensitivity (ITT) were evaluated pre- and post-treatment. Thus, for the OGTT the mice were force-fed glucose (2 g/kg), and for the ITT the mice received an i.p. injection of insulin (0.5 IU/kg). In both cases, blood glucose was measured at times t=0, t=15 min, t=30 min, t=45 min, t=60 min, t=90 min, and t=120 min post-glucose ingestion using a Contour®TS blood glucose monitor (ref. 81574201, Bayer HealthCare) and reactive strips (ref. 81574274, Bayer HealthCare).

CSc1ccc(C2C(N3C(=O)c4ccccc4C3=O)C(=O)N2c2ccc(SC)cc2)cc1 (stereo not drawn) [JM-00.266, trans-1,4-di-(4-methylthiophenyl)-3-N-phthaloyl-azetidine-2-one]
G6P expression [1]: reduction | GLUT4 expression [1]: reduction | basal blood glucose (obese C57BL/6 mice): significant improvement | glucose tolerance (OGTT 2 g/kg) (obese C57BL/6 mice): significant improvement
